# Reference: the supplement of paper PMC10307832
# How the values were obtained:
# Experiment in all cases: relative viability (nuclei count vs DMSO), 5 days (fraction); higher = more cells survive
# [1] = compound: O=C(O)c1ccc2c(c1)nc(Nc1cccc(Cl)c1)c1ccncc12 [Silmitasertib]
# Procedure, shortened: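 Hoechst staining, done together with fixation and permeabilisation, marked nuclei for 4× imaging and MetaXpress counting. This followed 5 days without medium change after lung cancer cell lines, kept overnight at 37 °C in 1536-well plates, were pinned with five library-drug doses (not always all listed) spaced by √10 on vehicle-anchored plates. Viability is the ratio of treated-well to vehicle-well nuclei, expressed as a median across plates. Plates passed only at control CV below 25% with at least one doubling.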
# [2] = compound: O=C(O)c1ccc2c(c1)nc(Nc1cccc(Cl)c1)c1ccncc12 [Silmitasertib] + CC1(C)CCC(c2ccc(Cl)cc2)=C(CN2CCN(c3ccc(C(=O)NS(=O)(=O)c4ccc(N[C@H](CCN5CCOCC5)CSc5ccccc5)c(S(=O)(=O)C(F)(F)F)c4)cc3)CC2)C1 [Navitoclax] (partner 0.5 µM)
# Procedure, shortened: (§1)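 Relative viability divides the nuclei count in treated wells by that in vehicle wells. Lung cancer cell lines were seeded in 1536-well plates, dosed by pin tool the next day, and fixed and stained after 5 days in one step with final 0.05% Triton X-100, 1% formaldehyde and 1 ug/ml Hoechst. Dosing was a single drug or a fixed anchor-drug dose plus five library-drug doses (not always all listed) in √10 steps, and values are medians of duplicate plates imaged at 4×.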
# [3] = compound: O=C(O)c1ccc2c(c1)nc(Nc1cccc(Cl)c1)c1ccncc12 [Silmitasertib] + COc1cccc2cc(-c3nc([C@H]4CC[C@H](C(=O)O)CC4)n4ncnc(N)c34)[nH]c12 [OSI-027] (partner 0.5 µM)
# Procedure, shortened: as §1
# [4] = compound: O=C(O)c1ccc2c(c1)nc(Nc1cccc(Cl)c1)c1ccncc12 [Silmitasertib] + CS(=O)(=O)N1CCN(Cc2cc3nc(-c4cccc5[nH]ncc45)nc(N4CCOCC4)c3s2)CC1 [Pictilisib] (partner 1 µM)
# Procedure, shortened: as §1
# [5] = compound: O=C(O)c1ccc2c(c1)nc(Nc1cccc(Cl)c1)c1ccncc12 [Silmitasertib] + Nc1ncn([C@H]2C[C@H](O)[C@@H](CO)O2)c(=O)n1 [Decitabine] (partner 2 µM)
# Procedure, shortened: as §1
Cell Line,relative viability ([1]; 0.04 µM),relative viability ([1]; 0.4 µM),relative viability ([1]; 1.265 µM),relative viability ([1]; 4 µM),relative viability ([2]; first compound 0.04 µM),relative viability ([2]; first compound 0.4 µM),relative viability ([2]; first compound 1.265 µM),relative viability ([2]; first compound 4 µM),relative viability ([3]; first compound 0.04 µM),relative viability ([3]; first compound 0.4 µM),relative viability ([3]; first compound 1.265 µM),relative viability ([3]; first compound 4 µM),relative viability ([4]; first compound 0.04 µM),relative viability ([4]; first compound 0.4 µM),relative viability ([4]; first compound 1.265 µM),relative viability ([4]; first compound 4 µM),relative viability ([5]; first compound 0.04 µM),relative viability ([5]; first compound 0.4 µM),relative viability ([5]; first compound 1.265 µM),relative viability ([5]; first compound 4 µM)
201T,1.08,0.994,1.02,1.06,1.21,1.19,1.26,1.31,0.821,0.631,0.719,0.462,0.739,0.665,0.68,0.694,0.851,0.841,0.847,0.903
A-427,1.07,–,1.03,0.396,1.05,–,0.943,0.566,0.617,–,0.425,0.192,0.858,–,0.521,0.238,0.525,0.554,0.461,0.421
ABC-1,1.37,0.773,0.656,0.465,–,–,–,–,0.52,0.37,0.221,0.226,1.12,0.561,0.303,0.345,1.44,1.05,0.686,0.922
BEN,1.16,0.795,1,0.885,0.0617,0.0687,0.059,0.0431,0.317,–,0.336,0.269,0.628,0.524,0.493,0.476,0.866,0.685,0.537,0.656
CAL-12T,1.15,0.892,0.842,0.472,1.39,1.16,1.19,0.387,0.839,0.542,0.29,0.23,0.532,0.394,0.34,0.232,–,–,–,–
COR-L23,1.07,0.782,1.09,0.831,1.1,0.982,1.06,0.968,0.786,0.496,0.828,0.419,0.945,0.586,0.636,0.248,0.495,0.507,0.501,0.368
COR-L 105,1.05,0.902,0.768,0.553,0.999,0.691,0.71,0.563,0.767,0.617,0.58,0.348,0.463,0.377,0.46,0.419,0.626,0.599,0.672,0.454
ChaGo-K-1,1.07,0.735,0.96,0.885,1.45,0.917,0.84,0.574,0.602,0.456,0.567,0.353,1.26,0.59,0.607,0.486,0.526,0.486,0.463,0.509
EKVX,1.11,0.617,0.864,0.717,0.874,0.648,0.681,0.681,0.812,0.533,0.605,0.662,0.491,0.356,0.373,0.383,0.421,–,0.374,0.299
EMC-BAC-2,1.11,0.806,0.605,0.44,1.24,1.03,1.14,1.09,0.395,0.348,0.276,0.249,0.568,0.472,0.371,0.325,1.01,0.951,0.93,0.819
EPLC-272H,1.25,–,0.807,0.154,1.09,–,0.747,0.807,0.301,–,0.24,0.178,0.424,–,0.268,0.169,0.475,–,0.296,0.348
H3255,1.05,0.877,0.946,0.906,0.593,0.294,0.347,0.208,0.73,0.591,0.545,0.613,0.537,0.448,0.414,0.345,0.563,0.703,0.543,0.532
HARA,1.13,0.678,0.668,0.38,1.16,0.88,0.944,0.984,0.715,0.203,0.432,0.141,0.603,0.41,0.334,0.257,0.698,0.554,0.494,0.355
HCC-15,1.11,0.769,0.825,0.377,0.745,0.556,0.548,0.438,0.761,0.552,0.437,0.24,0.772,0.535,0.493,0.238,0.703,0.536,0.404,0.292
HCC-44,1.03,0.963,1.03,0.544,0.926,0.874,0.892,0.928,0.524,0.606,0.508,0.29,0.579,0.452,0.549,0.351,0.933,0.929,1.01,0.825
HCC-78,1.05,0.697,0.654,0.764,0.892,0.672,0.757,0.65,0.437,0.346,0.369,0.335,0.23,0.231,0.226,0.205,0.64,0.603,0.381,0.613
HCC-366,0.993,0.794,0.923,0.136,1.15,–,0.921,0.82,0.896,0.489,0.7,0.0818,0.138,0.137,0.0849,0.141,0.37,0.347,0.31,0.379
HCC-827,1.09,–,1.14,0.996,1.11,–,1.09,1.19,0.872,–,0.702,0.736,1.04,–,0.751,0.788,0.313,–,0.153,0.292

Cell Line,relative viability ([1]; 0.04 µM),relative viability ([1]; 0.4 µM),relative viability ([1]; 1.265 µM),relative viability ([1]; 4 µM),relative viability ([2]; first compound 0.04 µM),relative viability ([2]; first compound 0.4 µM),relative viability ([2]; first compound 1.265 µM),relative viability ([2]; first compound 4 µM),relative viability ([3]; first compound 0.04 µM),relative viability ([3]; first compound 0.4 µM),relative viability ([3]; first compound 1.265 µM),relative viability ([3]; first compound 4 µM),relative viability ([4]; first compound 0.04 µM),relative viability ([4]; first compound 0.4 µM),relative viability ([4]; first compound 1.265 µM),relative viability ([4]; first compound 4 µM),relative viability ([5]; first compound 0.04 µM),relative viability ([5]; first compound 0.4 µM),relative viability ([5]; first compound 1.265 µM),relative viability ([5]; first compound 4 µM)
HOP-62,1.09,–,1.12,0.542,0.996,–,0.961,0.849,0.897,–,0.905,0.497,0.809,–,0.654,0.279,0.24,–,0.203,0.211
IA-LM,1.03,0.749,1.08,0.409,1.08,0.665,0.968,0.623,–,–,–,–,0.346,0.267,0.233,0.149,–,–,–,–
LC-2-ad,1.13,0.828,0.976,0.523,0.462,0.383,0.392,0.261,0.982,0.709,0.721,0.483,0.448,0.443,0.525,0.332,0.836,0.794,0.689,0.665
LCLC-97TM1,1.1,–,0.882,0.403,0.504,–,0.484,0.279,0.545,–,0.339,0.198,0.19,–,0.15,0.112,0.236,–,0.209,0.251
LCLC-103H,0.986,0.99,0.945,0.628,–,–,–,–,0.519,0.4,0.438,0.384,0.578,0.702,0.565,0.446,0.791,0.655,0.616,0.556
LK-2,1.04,0.727,1.03,0.943,0.854,0.696,0.732,0.576,0.266,–,0.247,0.184,0.618,0.52,0.514,0.499,0.312,–,0.194,0.21
LOU-NH91,1.12,0.917,0.806,0.582,0.852,0.596,0.549,0.464,0.709,0.665,0.629,0.543,0.574,0.507,0.464,0.388,0.876,0.801,0.754,0.782
LU99A,1.03,1.09,0.986,0.752,0.911,0.735,0.622,0.546,0.276,0.293,0.314,0.255,0.325,0.331,0.297,0.291,0.824,0.837,0.808,0.605
LXF-289,1.05,–,1.05,1.02,0.917,–,1.01,1,0.78,–,0.805,0.532,0.808,–,0.772,0.79,0.41,–,0.377,0.405
NCI-H23,1.07,0.395,0.747,0.372,0.957,–,0.732,0.728,0.706,–,0.423,0.206,0.54,–,0.38,0.26,0.353,0.256,0.255,0.245
NCI-H322M,1.08,0.882,0.826,0.486,1.23,0.932,0.799,0.479,0.619,0.467,0.383,0.372,0.503,0.503,0.381,0.365,0.727,0.686,0.674,0.649
NCI-H358,1.13,0.757,0.744,0.667,–,–,–,–,1.09,0.349,0.519,0.376,0.375,0.324,0.322,0.288,0.22,0.217,0.199,0.199
NCI-H522,1.09,0.788,0.82,0.694,–,–,–,–,0.739,0.762,0.684,0.67,–,–,–,–,0.653,0.62,0.69,0.655
NCI-H650,1.17,0.567,0.66,0.379,–,–,–,–,0.699,0.424,0.515,0.366,1.08,0.817,0.614,0.75,0.309,0.315,0.322,0.341
NCI-H661,1.06,0.829,0.946,0.991,–,–,–,–,0.864,0.593,0.635,0.577,0.461,0.298,0.243,0.271,0.636,0.617,0.548,0.441
NCI-H1703,1.13,0.883,1.1,1.11,1.44,1.01,1.15,0.807,–,–,–,–,0.25,0.291,0.228,0.252,–,–,–,–
NCI-H2228,0.949,0.715,1.12,1.06,0.981,0.579,0.586,1.16,0.541,–,0.583,0.494,0.505,0.312,0.367,0.305,–,–,–,–
SW 900,1.02,0.503,0.651,0.295,–,–,–,–,0.648,0.304,0.388,0.207,–,–,–,–,0.499,0.422,0.377,0.347
